Drawing on patent US20110294810A1, “SUBSTITUTED (PYRIDYL)-AZINYLAMINE DERIVATIVES AS PLANT PROTECTION AGENTS” (priority 2008, published 2011), this text covers log p and chromatographic logP for 49 molecules.

The first series in a line: Measurement of logP values by HPLC on reversed phase columns (EEC directive 79/831 Annex V.A8). The format is physicochemical. To be noted: HPLC on reversed phase columns; usually LC-MS at pH 2.7 with 0.1% formic acid in water and acetonitrile, linear gradient 10% to 95% acetonitrile.
Regarding `CCCCN(C)Cc1cc(-c2ccnc(Nc3cccc(Cl)c3)n2)ccn1` [Compound A38], the log p worked out at 1.97.

The molecule `CN(Cc1cc(-c2ccnc(Nc3cccc(Cl)c3)n2)ccn1)CC1OCCO1` [Compound A44] came in with a log p of 1.79.

With `CC1(C)CCCN(Cc2cc(-c3ccnc(Nc4cccc(Cl)c4)n3)ccn2)C1` [Compound A45], the log p is on record as 2.1.

The molecule `CC1CCCN1Cc1cc(-c2ccnc(Nc3cccc(Cl)c3)n2)ccn1` (stereo not shown) [Compound A46] displayed a log p of 1.76.

For the molecule `CN(C)CCN(C)Cc1cc(-c2ccnc(Nc3cccc(Cl)c3)n2)ccn1` [Compound A58], the log p came out at 1.44.

Turning to `C=CCN(C)Cc1cc(-c2ccnc(Nc3cccc(Cl)c3)n2)ccn1` [Compound A59], the log p is 1.75.

As for `CC(C)CN(C)Cc1cc(-c2ccnc(Nc3cccc(Cl)c3)n2)ccn1` [Compound A60], the log p is on record as 1.93.

Molecule `CCC(C)N(C)Cc1cc(-c2ccnc(Nc3cccc(Cl)c3)n2)ccn1` (stereo not shown) [Compound A61] returned a log p of 1.88.

Regarding `CN1CCC(N(C)Cc2cc(-c3ccnc(Nc4cccc(Cl)c4)n3)ccn2)CC1` [Compound A63], the log p is listed as 1.07.

Staying with this series, now noted: pH 2.7.
`CC(C)C(=O)NCc1cc(-c2ccnc(Nc3cccc(Cl)c3)n2)ccn1` [Compound A2, N-[(4-{2-[(3-chlorophenyl)amino]pyrimidin-4-yl}pyridin-2-yl)methyl]-2-methyl propanamide]: the log p stood at 2.52.

Molecule `CCCC(=O)NCc1cc(-c2ccnc(Nc3cccc(Cl)c3)n2)ccn1` [Compound A5] registered a log p of 2.51.

As for `O=C(NCc1cc(-c2ccnc(Nc3cccc(Cl)c3)n2)ccn1)C1CCC1` [Compound A7], the log p was determined as 2.69.

In turn, `CC(C)CC(=O)NCc1cc(-c2ccnc(Nc3cccc(Cl)c3)n2)ccn1` [Compound A9] had a log p of 2.84.

`CC(C)=CC(=O)NCc1cc(-c2ccnc(Nc3cccc(Cl)c3)n2)ccn1` [Compound A10] gave a log p of 2.75.

Molecule `O=C(NCc1cc(-c2ccnc(Nc3cccc(Cl)c3)n2)ccn1)C1CC1` [Compound A12] came in with a log p of 2.39.

Regarding `CC(C)(C)C(=O)NCc1cc(-c2ccnc(Nc3cccc(Cl)c3)n2)ccn1` [Compound A13], the log p is 2.88.

The molecule `COCC(=S)NCc1cc(-c2ccnc(Nc3cccc(Cl)c3)n2)ccn1` [Compound A16] had a log p of 3.29.

In turn, `CC(=O)OCc1cc(-c2ccnc(Nc3cccc(Cl)c3)n2)ccn1` [Compound A18] displayed a log p of 3.02.

For the molecule `CCCCCC(=O)OCc1cc(-c2ccnc(Nc3cccc(Cl)c3)n2)ccn1` [Compound A19], the log p turned out to be 4.73.

`CC(C)CC(=O)OCc1cc(-c2ccnc(Nc3cccc(Cl)c3)n2)ccn1` [Compound A21] displayed a log p of 4.26.

The molecule `CC(=O)OCc1cc(-c2ccnc(N(C(C)=O)c3cccc(Cl)c3)n2)ccn1` [Compound A26] returned a log p of 2.35.

For `CC(C)C(=O)OCc1cc(-c2ccnc(Nc3cccc(Cl)c3)n2)ccn1` [Compound A31], the log p is 3.89.

`C#CCCCC(=O)OCc1cc(-c2ccnc(Nc3cccc(Cl)c3)n2)ccn1` [Compound A33] registered a log p of 3.73.

`O=C(OCc1cc(-c2ccnc(Nc3cccc(Cl)c3)n2)ccn1)C1CCCC1` [Compound A36] returned a log p of 4.41.

In the case of `CN(C)Cc1cc(-c2ccnc(Nc3cccc(Cl)c3)n2)ccn1` [Compound A41], the log p is on record as 1.57.

As to `Clc1cccc(Nc2nccc(-c3ccnc(CN4CC=CC4)c3)n2)c1` [Compound A49], the log p was 1.67.

In turn, `CN(Cc1cc(-c2ccnc(Nc3cccc(Cl)c3)n2)ccn1)C1CCCC1` [Compound A51] returned a log p of 1.95.

Take `CCN(C)Cc1cc(-c2ccnc(Nc3cccc(Cl)c3)n2)ccn1` [Compound A52]: the log p is recorded as 1.66.

`CCN(CC)Cc1cc(-c2ccnc(Nc3cccc(Cl)c3)n2)ccn1` [Compound A53] returned a log p of 1.78.

For the molecule `CN(CCC#N)Cc1cc(-c2ccnc(Nc3cccc(Cl)c3)n2)ccn1` [Compound A64], the log p is on record as 1.74.

On to `CCCN(C)Cc1cc(-c2ccnc(Nc3cccc(Cl)c3)n2)ccn1` [Compound A65], for which the log p is on record as 1.81.

`CCCSCc1cc(-c2ccnc(Nc3cccc(Cl)c3)n2)ccn1` [Compound A70] gave a log p of 3.48.

`CCCCSCc1cc(-c2ccnc(Nc3cccc(Cl)c3)n2)ccn1` [Compound A71] showed a log p of 4.56.

On to `COCCOCCSCc1cc(-c2ccnc(Nc3cccc(Cl)c3)n2)ccn1` [Compound A73], for which the log p turned out to be 3.11.

For the molecule `N#CCCCCSCc1cc(-c2ccnc(Nc3cccc(Cl)c3)n2)ccn1` [Compound A76], the log p was found to be 3.35.

In turn, `CCC(C)CSCc1cc(-c2ccnc(Nc3cccc(Cl)c3)n2)ccn1` (stereo not shown) [Compound A77] returned a log p of 5.

In the case of `COCC(=O)NC(C)c1cc(-c2ccnc(Nc3cccc(Cl)c3)n2)ccn1` (stereo not shown) [Compound A80], the log p is 2.68.

The molecule `COCC(=O)NC(C)c1cc(-c2ccnc(N(C(=O)COC)c3cccc(Cl)c3)n2)ccn1` (stereo not shown) [Compound A81] gave a log p of 2.11.

Molecule `Clc1cccc(Nc2nccc(-c3ccnc(CSCc4ccccc4)c3)n2)c1` [Compound A83] yielded a log p of 4.39.

The molecule `CC(C)CSCc1cc(-c2ccnc(Nc3cccc(Cl)c3)n2)ccn1` [Compound A84] had a log p of 4.54.

On to `C=C(C)C(=O)OCc1cc(-c2ccnc(Nc3cccc(Cl)c3)n2)ccn1` [Compound A87], for which the log p worked out at 3.78.

Take `C=C(C)CC(=O)OCc1cc(-c2ccnc(Nc3cccc(Cl)c3)n2)ccn1` [Compound A88]: the log p was 3.92.

Staying with this series, now noted: reversed phase HPLC column; HPLC on reversed phase columns; usually LC-MS at pH 2.7 with 0.1% formic acid in water and acetonitrile, linear gradient 10% to 95% acetonitrile; read-out: log p.
On to `NCc1cc(-c2ccnc(Nc3cccc(Cl)c3)n2)ccn1` [Compound A1, 4-[2-(aminomethyl)pyridin-4-yl]-N-(3-chlorophenyl)pyrimidin-2-amine], for which the chromatographic logP is 1.52.

For `CCC(C)CNC(=S)NCc1cc(-c2ccnc(Nc3cccc(Cl)c3)n2)ccn1` (stereo not shown) [Compound A6, 1-[(4-{2-[(3-chlorophenyl)amino]pyrimidin-4-yl}pyridin-2-yl)methyl]-3-(2-methylbutyl)thiourea], the chromatographic logP stood at 3.59.

Turning to `ClCc1cc(-c2ccnc(Nc3cccc(Cl)c3)n2)ccn1` [Compound A15, 4-[2-(chloromethyl)pyridin-4-yl]-N-(3-chlorophenyl)pyrimidin-2-amine], the chromatographic logP turned out to be 3.46.

Consider `Clc1cccc(Nc2nccc(-c3ccnc(CN4CCCCC4)c3)n2)c1` [Compound A17, N-(3-chlorophenyl)-4-[2-(piperidin-1-ylmethyl)pyridin-4-yl]pyrimidin-2-amine], for which the chromatographic logP was determined as 1.81.

On to `COCc1cc(-c2ccnc(N(C)c3cccc(Cl)c3)n2)ccn1` [Compound A25, N-(3-chlorophenyl)-4-[2-(methoxymethyl)pyridin-4-yl]-N-methylpyrimidin-2-amine], for which the chromatographic logP came out at 3.02.

`C=CCC(=O)OCc1cc(-c2ccnc(Nc3cccc(Cl)c3)n2)ccn1` [Compound A37, (4-{2-[(3-chlorophenyl)amino]pyrimidin-4-yl}pyridin-2-yl)methyl but-3-enoate]: the chromatographic logP amounted to 3.64.

Regarding `CCSCc1cc(-c2ccnc(Nc3cccc(Cl)c3)n2)ccn1` [Compound A69, N-(3-chlorophenyl)-4-{2-[(ethylsulfanyl)methyl]pyridin-4-yl}pyrimidin-2-amine], the chromatographic logP was determined as 3.64.
